Patent US20260103465A1, “GLYCOGEN SYNTHASE KINASE 3 INHIBITORS AND USES THEREOF” (The Broad Institute, Inc., priority 2023, published 2026)

How the values were obtained:
[1] = molecular target: T1, GSK3a (GST-full length GSK3a) (Homo sapiens, UniProt P49840); assay: GSK3a TR-FRET kinase inhibition assay; format: biochemical; conditions: 1 mM ATP; Table 5; read-out: GSK3α TR-FRET 1 mM ATP Average IC50
T1 construct: GST-full length GSK3a [SignalChem G08-10G]; purchased SignalChem G08-10G
Experimental: (§1) TR-FRET assay was performed in a white, 384 well, low volume, flat bottom plate (Grenier). After a 30 minute preincubation in assay buffer with the indicated concentration of compound, the kinase activity was initiated by the addition of the substrates. 1 nM GSK3a (GST-full length GSK3a [SignalChem G08-10G]) or 1 nM GSK3b (GST-full length GSK3b: [SignalChem G08-9G]) were then incubated at ambient temperature for 100 minutes in 10 μl of 50 mM Tris, pH 7.5, 20 mM MgCl2, 0.05 mM DTT, 100 μg/ml BSA and 1% DMSO, with 200 nM biotinylated peptide substrate (biotinylated and S645 phosphorylated glycogen synthase 631-650) and ATP (e.g., at 2 μM, 4 μM, 10 μM, 100 μM, or 1 mM). The kinase activity was quenched with 2 μl of 250 mM EDTA. A 10 μl volume of 40 nM Strepavidin-d2, 2 nM […] antibody in TR-FRET Detection Buffer (Invitrogen) was then added. After 60 min at room temperature the plate was read on Envision plate reader using Ex: 340 nm, Em: 615 nm and […]. The normalized 665/615 Signal ratio versus log compound concentration was analyzed by XLFIT to yield IC50 values.

[2] = molecular target: T2, GSK3b (GST-full length GSK3b) (Homo sapiens, UniProt P49841); assay: GSK3b TR-FRET kinase inhibition assay; format: biochemical; conditions: 1 mM ATP; Table 5; read-out: GSK3β TR-FRET 1 mM ATP Average IC50
T2 construct: GST-full length GSK3b: [SignalChem G08-9G]; purchased SignalChem G08-9G
T2 sequence (P49841 whole entry): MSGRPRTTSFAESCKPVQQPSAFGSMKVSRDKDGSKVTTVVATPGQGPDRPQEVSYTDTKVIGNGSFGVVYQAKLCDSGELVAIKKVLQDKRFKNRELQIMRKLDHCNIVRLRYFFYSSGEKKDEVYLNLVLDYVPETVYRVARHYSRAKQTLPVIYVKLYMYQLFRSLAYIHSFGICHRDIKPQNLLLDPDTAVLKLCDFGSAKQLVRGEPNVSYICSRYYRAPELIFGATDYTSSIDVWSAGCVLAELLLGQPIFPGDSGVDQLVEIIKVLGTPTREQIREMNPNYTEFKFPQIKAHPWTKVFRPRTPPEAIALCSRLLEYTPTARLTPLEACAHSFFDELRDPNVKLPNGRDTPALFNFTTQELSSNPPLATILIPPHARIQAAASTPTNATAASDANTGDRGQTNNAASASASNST
Experimental: as §1

T1 sequence (P49840 whole entry): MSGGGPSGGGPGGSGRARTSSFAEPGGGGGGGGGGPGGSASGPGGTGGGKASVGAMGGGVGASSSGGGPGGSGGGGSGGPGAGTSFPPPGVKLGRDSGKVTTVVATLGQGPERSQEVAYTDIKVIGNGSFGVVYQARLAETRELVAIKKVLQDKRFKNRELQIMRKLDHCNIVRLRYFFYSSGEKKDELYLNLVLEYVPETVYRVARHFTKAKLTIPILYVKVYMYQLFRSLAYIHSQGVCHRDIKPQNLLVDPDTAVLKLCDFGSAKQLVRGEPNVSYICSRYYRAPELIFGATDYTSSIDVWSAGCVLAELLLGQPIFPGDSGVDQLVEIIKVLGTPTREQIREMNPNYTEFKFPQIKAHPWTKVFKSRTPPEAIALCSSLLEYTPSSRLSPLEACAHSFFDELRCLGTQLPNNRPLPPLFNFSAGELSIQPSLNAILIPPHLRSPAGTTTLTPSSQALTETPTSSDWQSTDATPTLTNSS

CC1(C)CC(=O)C2=C(C1)Nc1ncc(C3CC3)c(C#N)c1C2(C)c1ccccc1 (single isomer, unassigned) [619A]
IC50 [1]: 5 to 20 µM | IC50 [2]: 5 to 20 µM

CC1(C)CC(=O)C2=C(C1)Nc1ncc(C3CC3)c(C#N)c1C2(C)c1ccccc1 (single isomer, unassigned) [619B]
IC50 [1]: 5 to 20 µM | IC50 [2]: 5 to 20 µM

C=C(C)c1cnc2c(c1C#N)C(C)(c1ccccc1)C1=C(CC(C)(C)CC1=O)N2 (single isomer, unassigned) [620A]
IC50 [1]: 5 to 20 µM | IC50 [2]: 5 to 20 µM

C=C(C)c1cnc2c(c1C#N)C(C)(c1ccccc1)C1=C(CC(C)(C)CC1=O)N2 (single isomer, unassigned) [620B]
IC50 [1]: 5 to 20 µM | IC50 [2]: 5 to 20 µM

CC(=O)c1cnc2c(c1C#N)C(C)(c1ccccc1)C1=C(CC(C)(C)CC1=O)N2 (single isomer, unassigned) [621A]
IC50 [1]: 5 to 20 µM | IC50 [2]: 5 to 20 µM

CC(C)c1cnc2c(c1C#N)C(C)(c1ccccc1)C1=C(CC(C)(C)CC1=O)N2 (single isomer, unassigned) [622B]
IC50 [1]: 5 to 20 µM | IC50 [2]: 5 to 20 µM

CC1(C)CC(=O)C2=C(C1)Nc1ncc(F)cc1C2(C)c1cccc(C(F)F)c1 (single isomer, unassigned) [623B]
IC50 [1]: 0.1 to 1 µM | IC50 [2]: 0.1 to 1 µM

CN(C)c1cnc2c(c1C#N)C(C)(c1ccccc1)C1=C(CC(C)(C)CC1=O)N2 (single isomer, unassigned) [624A]
IC50 [1]: 5 to 20 µM | IC50 [2]: 5 to 20 µM

CN(C)c1cnc2c(c1C#N)C(C)(c1ccccc1)C1=C(CC(C)(C)CC1=O)N2 (single isomer, unassigned) [624B]
IC50 [1]: > 20 µM | IC50 [2]: 5 to 20 µM

CC1(C)CC2=C(C(=O)N1)C(C)(c1ccccc1)c1cc(C(F)(F)F)cnc1N2 (single isomer, unassigned) [625A]
IC50 [1]: 1 to 5 µM | IC50 [2]: 1 to 5 µM

COc1cnc2c(c1C1CC1)C(C)(c1ccccc1)C1=C(CC(C)(C)CC1=O)N2 (single isomer, unassigned) [626A]
IC50 [1]: 5 to 20 µM | IC50 [2]: 5 to 20 µM

COc1cnc2c(c1C1CC1)C(C)(c1ccccc1)C1=C(CC(C)(C)CC1=O)N2 (single isomer, unassigned) [626B]
IC50 [1]: 5 to 20 µM | IC50 [2]: 1 to 5 µM

CC1(C)CC(=O)C2=C(C1)Nc1ncc(C(F)F)c(C#N)c1C2(C)c1ccccc1 (single isomer, unassigned) [627A]
IC50 [1]: 0.1 to 1 µM | IC50 [2]: 0.1 to 1 µM

CC1(C)CC(=O)C2=C(C1)Nc1ncc(C(F)F)c(C#N)c1C2(C)c1ccccc1 (single isomer, unassigned) [627B]
IC50 [1]: 5 to 20 µM | IC50 [2]: 1 to 5 µM

CC1(C)CC2=C(C(=O)N1)C(C)(c1ccccc1)c1c(ncc(C(F)F)c1C#N)N2 (single isomer, unassigned) [628A]
IC50 [1]: 1 to 5 µM | IC50 [2]: 1 to 5 µM

CC1(C)CC2=C(C(=O)N1)C(C)(c1ccccc1)c1c(ncc(C(F)F)c1C#N)N2 (single isomer, unassigned) [628B]
IC50 [1]: 1 to 5 µM | IC50 [2]: 0.1 to 1 µM

CC(C)Oc1cccc(C2(C)C3=C(CC(C)(C)CC3=O)Nc3ncc(F)cc32)c1 (single isomer, unassigned) [629B]
IC50 [1]: 0.1 to 1 µM | IC50 [2]: 0.1 to 1 µM

CC1(C)CC2=C(C(=O)N1)C(C)(c1cccc(S(C)(=O)=O)c1)c1cccnc1N2 (single isomer, unassigned) [630A]
IC50 [1]: ≤ 0.1 µM | IC50 [2]: 0.1 to 1 µM

CC1(C)CC(=O)C2=C(C1)Nc1ncc(C(C)(F)F)c(C#N)c1C2(C)c1ccccc1 (single isomer, unassigned) [631A]
IC50 [1]: 5 to 20 µM | IC50 [2]: 5 to 20 µM

CC1(C)CC(=O)C2=C(C1)Nc1ncc(C(C)(F)F)c(C#N)c1C2(C)c1ccccc1 (single isomer, unassigned) [631B]
IC50 [1]: 5 to 20 µM | IC50 [2]: 5 to 20 µM

CN1C(=O)C2=C(CC1(C)C)Nc1ncc(C(F)F)c(C#N)c1C2(C)c1ccccc1 (single isomer, unassigned) [632A]
IC50 [1]: 1 to 5 µM | IC50 [2]: 0.1 to 1 µM

CN1C(=O)C2=C(CC1(C)C)Nc1ncc(C(F)F)c(C#N)c1C2(C)c1ccccc1 (single isomer, unassigned) [632B]
IC50 [1]: 0.1 to 1 µM | IC50 [2]: 0.1 to 1 µM

CC1(C)CC(=O)C2=C(C1)Nc1ncc(F)c(C#N)c1C2(C)c1cccc(C(F)F)c1 (single isomer, unassigned) [634A]
IC50 [1]: 5 to 20 µM | IC50 [2]: 5 to 20 µM

CC1(C)CC(=O)C2=C(C1)Nc1ncc(F)c(C#N)c1C2(C)c1cccc(C(F)F)c1 (single isomer, unassigned) [634B]
IC50 [1]: ≤ 0.1 µM | IC50 [2]: ≤ 0.1 µM

CC1(C)CC(=O)C2=C(C1)Nc1ncc(C3CCCC3)c(C#N)c1C2(C)c1ccccc1 (single isomer, unassigned) [635A]
IC50 [1]: 5 to 20 µM | IC50 [2]: 5 to 20 µM

C=Cc1c(C(F)(F)F)cnc2c1C(C)(c1ccccc1)C1=C(CC(C)(C)CC1=O)N2 (single isomer, unassigned) [636A]
IC50 [1]: 1 to 5 µM | IC50 [2]: 0.1 to 1 µM

C=Cc1c(C(F)(F)F)cnc2c1C(C)(c1ccccc1)C1=C(CC(C)(C)CC1=O)N2 (single isomer, unassigned) [636B]
IC50 [1]: 5 to 20 µM | IC50 [2]: 1 to 5 µM

CC1(C)CC2=C(C(=O)N1)C(C)(c1cccc(S(C)(=O)=O)c1)c1cc(F)cnc1N2 (single isomer, unassigned) [638A]
IC50 [1]: ≤ 0.1 µM | IC50 [2]: 0.1 to 1 µM

CC1(C)CC2=C(C(=O)N1)C(C)(c1cccc(S(C)(=O)=O)c1)c1cc(F)cnc1N2 (single isomer, unassigned) [638B]
IC50 [1]: 5 to 20 µM | IC50 [2]: 5 to 20 µM

CC(C)Oc1cccc(C2(C)C3=C(CC(C)(C)CC3=O)Nc3ncc(F)c(C#N)c32)c1 (single isomer, unassigned) [639A]
IC50 [1]: 5 to 20 µM | IC50 [2]: 5 to 20 µM

CC(C)Oc1cccc(C2(C)C3=C(CC(C)(C)CC3=O)Nc3ncc(F)c(C#N)c32)c1 (single isomer, unassigned) [639B]
IC50 [1]: ≤ 0.1 µM | IC50 [2]: ≤ 0.1 µM

C=Cc1cnc2c(c1Br)C(C)(c1ccccc1)C1=C(CC(C)(C)CC1=O)N2 (single isomer, unassigned) [640B]
IC50 [1]: 5 to 20 µM | IC50 [2]: 5 to 20 µM

CN(c1cccc(C2(C)C3=C(CC(C)(C)CC3=O)Nc3ncccc32)c1)c1ncccn1 (single isomer, unassigned) [641B]
IC50 [1]: 1 to 5 µM | IC50 [2]: 1 to 5 µM

CC1(C)CC(=O)C2=C(C1)Nc1ncc(C(F)(F)F)c(C3CC3)c1C2(C)c1ccccc1 (single isomer, unassigned) [642A]
IC50 [1]: 5 to 20 µM | IC50 [2]: 1 to 5 µM

CC1(C)CC(=O)C2=C(C1)Nc1ncc(C(F)(F)F)c(C3CC3)c1C2(C)c1ccccc1 (single isomer, unassigned) [642B]
IC50 [1]: 5 to 20 µM | IC50 [2]: 5 to 20 µM

Cc1c(C2(C)C3=C(CC(C)(C)CC3=O)Nc3ncc(F)cc32)cccc1S(C)(=O)=O (single isomer, unassigned) [643A]
IC50 [1]: 0.1 to 1 µM | IC50 [2]: 0.1 to 1 µM

Cc1ccc(C2(C)C3=C(CC(C)(C)CC3=O)Nc3ncc(F)cc32)cc1S(C)(=O)=O (single isomer, unassigned) [644A]
IC50 [1]: 0.1 to 1 µM | IC50 [2]: 0.1 to 1 µM

CC(C)Oc1cccc(C2(C)C3=C(CC(C)(C)CC3=O)Nc3ncc4c(cnn4C)c32)c1 (single isomer, unassigned) [645A]
IC50 [1]: 5 to 20 µM | IC50 [2]: 5 to 20 µM

CC(C)Oc1cccc(C2(C)C3=C(CC(C)(C)CC3=O)Nc3ncc4c(cnn4C)c32)c1 (single isomer, unassigned) [645B]
IC50 [1]: 5 to 20 µM | IC50 [2]: 1 to 5 µM
